In ChEMBL document CHEMBL3045632, “Synthetic inhibitors of the fungal detoxifying enzyme brassinin oxidase based on the phytoalexin camalexin scaffold” (J Agric Food Chem, 2009):

What was measured:
Plenodomus lingam [1] = test: Inhibition of Leptosphaeria maculans brassinin oxidase activity at 0.30 mM relative to control
Plenodomus lingam [2] = test: Inhibition of Leptosphaeria maculans brassinin oxidase activity at 0.10 mM relative to control
Plenodomus lingam [3] = test: Antifungal activity against Leptosphaeria maculans assessed as inhibition of mycelial growth at 0.10 mM relative to control; format: functional
Plenodomus lingam [4] = test: Inhibition of Leptosphaeria maculans brassinin oxidase assessed as relative specific activity at 0.50 mM relative to control
Plenodomus lingam [5] = test: Inhibition of Leptosphaeria maculans brassinin oxidase assessed as relative protein at 0.20 mM relative to control
Plenodomus lingam [6] = test: Inhibition of Leptosphaeria maculans brassinin oxidase assessed as relative protein at 0.50 mM relative to control
Plenodomus lingam [7] = test: Inhibition of Leptosphaeria maculans brassinin oxidase assessed as relative specific activity at 0.10 mM relative to control
Plenodomus lingam [8] = test: Inhibition of Leptosphaeria maculans brassinin oxidase assessed as relative protein at 0.10 mM relative to control
Plenodomus lingam [9] = test: Inhibition of Leptosphaeria maculans brassinin oxidase assessed as relative specific activity at 0.20 mM relative to control
[10] = Solubility of the compound at 50 mM; format: physicochemical; conditions: 50000 µM
Plenodomus lingam [11] = test: Antifungal activity against Leptosphaeria maculans assessed as inhibition of mycelial growth at 0.20 mM relative to control; format: functional
Plenodomus lingam [12] = test: Antifungal activity against Leptosphaeria maculans assessed as inhibition of mycelial growth at 0.50 mM relative to control; format: functional

SMILES	inhibition (Plenodomus lingam [1]) [%]	inhibition (Plenodomus lingam [2]) [%]	inhibition at 100 µM (Plenodomus lingam [3]) [%]	Ratio (Plenodomus lingam [4])	Ratio (Plenodomus lingam [5])	Ratio (Plenodomus lingam [6])	Ratio (Plenodomus lingam [7])	Ratio (Plenodomus lingam [8])	Ratio (Plenodomus lingam [9])	solubility [10]	inhibition at 200 µM (Plenodomus lingam [11]) [%]	inhibition at 500 µM (Plenodomus lingam [12]) [%]
Fc1ccc2c(-c3ccccc3)c[nH]c2c1	17	11	–	–	–	–	–	–	–	–	–	–
c1ccc2c(-c3cnsc3)cccc2c1	21	16	–	–	–	–	–	–	–	–	–	–
c1ccc2cc(-c3cnsc3)ccc2c1 [2-NAPHTHALENYLISOTHIAZOLE]	42	29	41	16.3	0.17	0.16	2.6	0.26	8.5	Insoluble	53	–
c1ccc(-c2c[nH]c3ccccc23)cc1 [3-PHENYLINDOLE]	–	–	100	5.7	0.14	0.1	30.9	0.18	39.2	–	–	–
Fc1ccc2[nH]cc(-c3nccs3)c2c1 [5-FLUOROCAMALEXIN]	63	47	76	7.9	0.23	0.19	5	0.3	4.9	–	81	100
COc1ccc2[nH]cc(-c3nccs3)c2c1 [5-METHOXYCAMALEXIN]	72	51	60	1.6	0.24	0.13	1.7	0.28	5.8	–	84	100
Fc1ccc2c(-c3nccs3)c[nH]c2c1 [6-FLUOROCAMALEXIN]	46	29	29	1.8	0.28	0.24	3.9	0.36	4	–	47	83
COc1ccc2c(-c3nccs3)c[nH]c2c1 [6-METHOXYCAMALEXIN]	63	41	17	4	0.16	0.11	2.3	0.27	3.7	–	78	100
c1ccc2c(-c3nccs3)c[nH]c2c1 [CAMALEXIN]	53	30	35	2.5	0.24	0.1	4.5	0.28	6.9	–	65	100
c1ccc2[nH]c(-c3cscn3)nc2c1 [THIABENDAZOLE]	25	16	100	4.9	0.28	0.06	1.9	0.35	4.1	–	–	–
